Test results reported in patent publication US7091182B2, “Method for assisting in differential diagnosis and treatment of autistic syndromes” (Repligen Corporation, priority 1997, dated 2006).
Entries after “also recorded” stand apart in the source; their conditions may differ.

Legend:
rats = conditions: ICV; cited from earlier work
[1] = system: children with autistic behavior; assay: Blood levels of gastrointestinal peptide hormones and neurotransmitters prior to and 10 minutes after secretin stimulation; format: in vivo, human
Experimental: (§1) After fasting from midnight, upper gastrointestinal endoscopies were carried out the next morning under general anesthesia. All gastric juice was aspirated before passing the endoscope into the duodenum. The pancreatico-biliary juice was collected after positioning the endoscope distal to the ampulla of Vater. An ERCP catheter was placed into the channel of endoscope and the fluid was collected by moving the tip into the outcoming fluid and suctioning it into a syringe. The pancreas was then stimulated with secretin 2 IU/kg BW (Ferring Laboratories, Inc. Suffern, NY, USA) given intravenously within a minute. Three additional specimens were collected after the secretin injection within a 10-minute period. Blood samples were collected prior to and 10 minutes after secretin stimulation. In a subgroup of children, the effect of duodenal acidification was determined by measurement of blood secretin levels before and 4–5 minutes after washing the second part of the duodenum with 0.05M hydrochloric acid for 5 minutes. At the end of the procedure, biopsies were obtained of the small intestine, esophagus and stomach.
Blood samples were analyzed for the levels of gastrointestinal peptide hormones (Secretin, CCK, VIP, Peptide Y) and neurotransmitters (Serotonin, Substance P). All the assays were performed in the Interscience Institute (Inglewood, Calif.) specialized in gastrointestinal hormone measurements.

[2] = system: patients with intrahepatic cholestasis; conditions: double-blind placebo-controlled multicentric trial; cited from earlier work
[3] = system: children with autistic behavior; assay: Behavioral evaluation after secretin administration; format: in vivo, human
Excerpt: Prior to the secretion administration, each child underwent developmental/psychological evaluation. […] In addition, most underwent a structured evaluation including assessment of intelligence, language ability, adaptive function [Vineland Adaptive Behavior Scales]^53 and behavioral rating scales [Child Behavior Checklist]^54. A more specific measure directly related to autism, the Childhood Autism Rating Scale [CARS]^55, was also used.
The most recent 8 cases had developmental/psychological evaluations at the University of Maryland or at the Kennedy Krieger Institute prior to the secretin administration.
The number and type of evaluation techniques that were employed increased across subjects as did the degree of sophistication of the professional staff involved in the design and conduct of the evaluation approaches. Specifically, data on the first seven subjects consisted of brief clinical observations, parental report, analysis of videotapes, and reports of evaluations by professionals who had conducted routine assessments not specifically dictated by our research protocol. Whereas, data on the second eight subjects studied consisted of the same methods described above, as well as with the addition of direct observation of behavior employing a standard functional analysis of structured videotape samples (analyzed in random order by blind raters); standard assessments including Communication and Symbolic Behavior Scales (CSBS), Pre-School Language Scales—3 (PSLS), Bayley Scales of Infant Development: Second Edition, Vineland Adaptive Behavior Scales, Childhood Autism Rating Scale (CARS), and Behavior Observation System (BOS). Further, the evaluation team for the least eight subjects involved professionals from the areas of neuropsychology, behavioral psychology and developmental pediatrics from both the University of Maryland School of Medicine and the Kennedy Krieger Institute/Johns Hopkins University School of Medicine.

[4] = system: children with autistic behavior; assay: Stool consistency / gastrointestinal symptoms after endoscopy and secretin injection; format: in vivo, human
Excerpt: The specific procedures were as follows.

[5] = system: children with autistic behavior; assay: Pancreatic stimulation with secretin during upper gastrointestinal endoscopy, collection of pancreatico-biliary fluid; format: in vivo, human
Experimental: as §1
The volume of secreted fluid was calculated as ml/min and the aspirated juice analyzed for pH, protein (mg/ml; Bio-Rad protein assay), and for enzymes (amylase, trypsin, lipase, chymotrypsin, and carboxypeptidase A and B). These enzyme assays were modified by us and run regularly in our certified Clinical Laboratory. An aliquot of collected fluid was sent for bacterial and fungal culture. Intestinal biopsy specimens were homogenized in ice-cold distilled water and the activities of lactase, maltase, sucrase, palatinase and glucoamylase were measured using the Dahlquist intestinal disaccharidases assay [Dahlquist, Anal. Biochem. 22:99–107 (1968); Azad M, Pediatr Res, 1990;28: 166–170 (1990)]. The normal values were established based on measurements of histological normal intestinal biopsy tissues (n=104) at the University of Maryland. In our practice, digestive enzyme activities below the established 3d percentile values are considered abnormal.

[6] = Group I (chronic loose stools/diarrhea)

Substance: secretin
- defecation (rats): significantly increased
- novel-object approaches (rats): decreased
- stereotypic behavior (rats): no significant effects
- Serotonin level after secretin injection [1, 6]: >50% elevation
- Serotonin level after secretin injection ([1]; Group II (no diarrhea)): <50% elevation
- blood level of CCK ([1]; after secretin injection): no change at all
- blood level of VIP ([1]; after secretin injection): no change at all
- blood level of substance P ([1]; after secretin injection): no change at all
- blood serotonin level ([1]; children with chronic diarrhea, ten minutes after secretin injection, fasting): significant elevation
- blood level of Peptide Y ([1]; four children, before or after secretin administration): no abnormality
- reduction of serum bilirubin levels, secretin versus placebo [2]: no statistically significant differences
- latest behavioral evaluation (diagnosis) ([3]; Case 1): changed from a low functioning autistic child to a social, non-autistic, speech delayed child; also recorded: changed from a low functioning autistic child to a social, non-autistic, speech-delayed child
- changes in autistic behavior ([3]; Case 1, after first secretin dose): dramatic improvement in eye contact, alertness, expressive language and fine motor skills; also recorded: improvements in eye contact, alertness, expressive language, and fine motor skills
- language and cognitive functions ([3]; Case 1, second single secretin infusion eight months later): further improvement in their language and cognitive functions
- cognitive skills ([3]; Case 2, five weeks following a single dosage): progressive improvement in cognitive skills; also recorded: improved over a five weeks period
- social behavior and language ([3]; Case 2, second dose 3 months later): further improvement in their social behavior and language
- language and communication skills ([3]; Case 3, second infusion 3 months later): accelerated their improvement
- language, social, and communication skills ([3]; Case 3, three weeks and two months after the procedure): significant improvements in language, social, and communication skills; also recorded: improved significantly
- Progress after Secretin administration: eye contact ([3]; Case #1, within two months, % of the time, before: Minimal eye contact): Eye contact 75% of the time
- Progress after Secretin administration: bowel movements ([3]; Case #1, within two months, before: Abnormal bowel movements): Normal bowel movements
- Progress after Secretin administration: sleeping ([3]; Case #1, within two months, before: Consistent sleeping problems): Has slept through almost every night entirely
- Progress after Secretin administration: potty training ([3]; Case #1, within two months, before: Diapers only): Completely potty trained
- Progress after Secretin administration: imitating commands ([3]; Case #1, within two months, before: Did not imitate commands): Will imitate almost any multi-step command
- Progress after Secretin administration: water consumption ([3]; Case #1, within two months, before: Excessive water consumption): Excessive water consumption - no change
- Progress after Secretin administration: spinning episodes ([3]; Case #1, within two months, before: Infrequent (1–2 times/week)): No spinning episodes
- Progress after Secretin administration: diet preferences ([3]; Case #1, within two months, before: Limited diet preferences): No change
- Progress after Secretin administration: connections between language and objects ([3]; Case #1, within two months, before: No apparent connections): Many connections made between new language learned and objects. Recites
- Progress after Secretin administration: flash cards ([3]; Case #1, within two months, before: No flash cards): 40–50 Flash cards
- Progress after Secretin administration: focus on requested tasks ([3]; Case #1, within two months, before: No focus on requested tasks): Will sit and watch carefully. Will perform most tasks after watching once or
- Progress after Secretin administration: interest in drawing ([3]; Case #1, within two months, before: No interest in drawing): Wants to draw constantly. Will draw complete face and name the parts as he
- Progress after Secretin administration: response to request for gestures ([3]; Case #1, within two months, before: No response): Responds to all kinds of requests and spontaneously says these things themself.
- Progress after Secretin administration: sentences ([3]; Case #1, within two months, before: No sentences): Short sentences, such as “I love you”, “I want juice”, “Good night mammy”
- Progress after Secretin administration: words ([3]; Case #1, within two months, before: Two words): 100's of words - will repeat some aproximation at any word requested
- Progress after Secretin administration: videos ([3]; Case #1, within two months, before: Watch videos): Now gets “involved” interactively with their videos. They will imitate the hand
- autistic symptoms and cognitive, language, and social skills, share of responders ([3]; all children who received secretin): more than half of the children
- Changes after Secretin: Activity level ([3]; case #2, time 1 week): Very energetic but has very good focus during
- Changes after Secretin: Appetite ([3]; case #2, time 1 week): Eating more foods: 2–3 large meals per day:
- Changes after Secretin: Movements ([3]; case #2, time 1 week): A decrease in most abnormal movements but
- Changes after Secretin: Social interaction ([3]; case #2, time 1 week): Hugging therapists; better eye contact,
- Changes after Secretin: Correct responses to drills ([3]; case #2, time 1 week, before: 50% correct responses): 75–80% correct responses
- Changes after Secretin: Bowel movements ([3]; case #2, time 2–3 days): At first constipated for 2–3 days. then normal
- Changes after Secretin: Receptive language, commands understood ([3]; case #2, time 3 weeks, before: 20–30% of commands): understands where they are going: understands 75%
- Changes after Secretin: Fine motor ([3]; case #2, time 4 weeks): Putting together Legos: turns key in door; turns
- Changes after Secretin: Gross motor ([3]; case #2, time 4 weeks): Starts to hang on monkey bars: goes down fire
- Changes after Secretin: Sleep ([3]; case #2, time 1 day, before: 7–8 hours): 10–12 hours per night uninterrupted every night
- Changes after Secretin: Alertness, concentration ([3]; case #2, time 2 days): Extremely alert: looking therapist directly in
- Changes: Activity level ([3]; case #3): Less hyperactive. More settled. More attentive and
- Changes: Alertness, concentration ([3]; case #3): Chewing clothing, hands, and licking have stopped.
- Changes: Appetite ([3]; case #3): Normal diet seems to satisfy them more. No longer
- Changes: Cognitive ([3]; case #3): Actions are more purposeful. Playing sequencing,
- Changes: Eye contact ([3]; case #3): More eye contact. Seeks out attention and once
- Changes: Fine motor skills ([3]; case #3): Now uses fork and spoon much more readily and
- Changes: Sleep ([3]; case #3): Now goes to bed willing and happily. Takes great
- Changes: Social interaction ([3]; case #3): Now has a friend at school. They participate actively in
- Changes: Correct responses to drills/commands ([3]; case #3, before: 50% correct responses): Rarely guessing. Very tuned in. Perhaps 80% correct
- Changes: Bowel movements ([3]; case #3, before: Loose stools or diarrhea): Normal bowel movement since week three
- Changes: Receptive language ([3]; case #3, before: understood 50% of commands): Understands almost everything. Understands two-step
- increase in the scores on the Vineland Scale of Adaptive Behavior ([3]; case three, immediately after secretin administration): 22%
- delayed reaction reported by the parents ([3]; case three, one-to-two months later): improved eye contact, increased focus on tasks, as well as improvements in language
- language skills ([3]; case two, after the secretin injection): significant improvement in language skills
- Vineland Scale of Adaptive Behaviors ([3]; child SG): increase in all five areas tested
- increase in the CSBS ([3]; child SG): 25%
- increases in language skills ([3]; child SG): six-to-nine month
- increase in language skills measured by the PSLS (equivalent in development) ([3]; child WB): five months to one year
- increase on the Bayley Scale of Development ([3]; child WB): 11 point
- increase on the CSBS scale ([3]; child WB, within four months): 37%
- autistic symptoms ([3]; each of the three cases): produced relief from autistic symptoms
- cognitive, social, language, and age appropriate skills ([3]; first seven subjects, parental report and non-protocol evaluations): dramatic changes in cognitive, social, language, and age appropriate skills were reported for four of the first seven subjects
- decrease of activity level measured by actometers ([3]; subject one): 50%
- increase on the BOS ([3]; subject one): 22%
- chronic diarrhea ([4]; Case 1, within three weeks after the procedure): their chronic diarrhea resolved; also recorded: His chronic diarrhea resolved
- chronic diarrhea ([4]; Case 3): His chronic diarrhea resolved
- duration of stool improvement ([4]; seven children with chronic loose stools): In five children this improvement was permanent
- consistency of stools ([4]; seven children with chronic loose stools, after endoscopy and secretin injection): all of them had an improvement in the consistency of stools
- pancreatic secretory response ([5]; Case 1, after 2 IU/kg BW of secretin): 10 mL/min
- secretory response after secretin administration ([5]; Case 2, 2 IU/kg body weight of secretin): 7.5 mL/min
- pancreato-biliary response to secretin, output ([5]; Case 3): 8 mL/min
- Pancreatic secretion [5, 6]: Increased (>5 ml/min)
- Pancreatic secretion ([5]; Group II (no diarrhea)): Normal (<4 ml/min)
- pancreato-biliary secretory response compared to non-autistic patients ([5]; all children, after secretin injection): extensive pancreato-biliary secretory response
- highest rate of secretion ([5]; in one child): 10 mL/min
- pancreatico-biliary secretion rates ([5]; six out of 7 autistic patients who had chronic loose stools): above 5 ml/min
